Measurements taken from patent US20120122860A1, “SOLID FORMS OF SULFONAMIDES AND AMINO ACIDS” (Plexxikon, Inc., priority 2009, published 2012).

Experiments:
[1] = biological target: B-Raf V600E (Homo sapiens, UniProt P15056, V600E); assay: Kinase activity assay, B-Raf V600E; type: biochemical; settings: read-out: activity toward kinase B-Raf V600E, IC50
[2] = biological target: Fms (Homo sapiens, UniProt P07333); assay: Kinase activity assay, Fms
[3] = biological target: C-Raf (Homo sapiens, UniProt P04049); assay: Kinase activity assay, C-Raf
[4] = biological target: Kdr (Homo sapiens, UniProt P35968); assay: Kinase activity assay, Kdr
Chain of Kdr (P35968 20-1356): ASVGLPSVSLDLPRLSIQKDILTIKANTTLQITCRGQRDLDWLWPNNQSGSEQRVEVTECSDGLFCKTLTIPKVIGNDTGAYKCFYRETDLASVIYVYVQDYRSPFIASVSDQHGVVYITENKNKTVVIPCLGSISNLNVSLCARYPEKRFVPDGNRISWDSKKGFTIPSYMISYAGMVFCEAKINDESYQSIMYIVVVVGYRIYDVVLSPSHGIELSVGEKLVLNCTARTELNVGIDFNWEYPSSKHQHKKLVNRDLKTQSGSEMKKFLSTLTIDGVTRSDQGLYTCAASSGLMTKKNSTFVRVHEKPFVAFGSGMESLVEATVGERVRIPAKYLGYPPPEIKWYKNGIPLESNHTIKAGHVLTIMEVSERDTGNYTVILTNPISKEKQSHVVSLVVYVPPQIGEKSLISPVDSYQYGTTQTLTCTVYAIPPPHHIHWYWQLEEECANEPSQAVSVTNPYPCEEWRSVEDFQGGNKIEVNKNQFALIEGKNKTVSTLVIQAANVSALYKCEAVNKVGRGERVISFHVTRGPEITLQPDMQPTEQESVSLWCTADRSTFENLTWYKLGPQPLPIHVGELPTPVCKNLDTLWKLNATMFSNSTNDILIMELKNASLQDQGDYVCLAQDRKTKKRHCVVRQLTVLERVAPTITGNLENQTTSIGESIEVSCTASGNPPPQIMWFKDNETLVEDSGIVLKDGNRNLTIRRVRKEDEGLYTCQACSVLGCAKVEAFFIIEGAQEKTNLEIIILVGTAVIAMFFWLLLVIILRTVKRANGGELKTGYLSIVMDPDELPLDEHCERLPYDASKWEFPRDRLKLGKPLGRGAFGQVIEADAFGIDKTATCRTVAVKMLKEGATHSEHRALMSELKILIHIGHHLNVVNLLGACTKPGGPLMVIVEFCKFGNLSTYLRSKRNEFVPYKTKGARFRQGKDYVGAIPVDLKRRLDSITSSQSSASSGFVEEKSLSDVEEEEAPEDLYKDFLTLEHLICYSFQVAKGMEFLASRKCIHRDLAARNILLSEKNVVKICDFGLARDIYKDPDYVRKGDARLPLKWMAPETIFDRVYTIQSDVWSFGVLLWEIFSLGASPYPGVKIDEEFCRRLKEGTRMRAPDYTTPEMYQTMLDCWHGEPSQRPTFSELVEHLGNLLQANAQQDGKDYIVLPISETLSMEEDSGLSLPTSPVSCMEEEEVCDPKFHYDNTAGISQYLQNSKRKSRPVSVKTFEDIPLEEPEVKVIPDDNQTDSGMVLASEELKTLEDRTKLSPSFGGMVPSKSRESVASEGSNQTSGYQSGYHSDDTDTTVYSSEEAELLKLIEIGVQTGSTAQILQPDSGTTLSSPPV

[5] = biological target: Kit (Homo sapiens, UniProt P10721); assay: Kinase activity assay, Kit
Chain of Kit (P10721 26-976): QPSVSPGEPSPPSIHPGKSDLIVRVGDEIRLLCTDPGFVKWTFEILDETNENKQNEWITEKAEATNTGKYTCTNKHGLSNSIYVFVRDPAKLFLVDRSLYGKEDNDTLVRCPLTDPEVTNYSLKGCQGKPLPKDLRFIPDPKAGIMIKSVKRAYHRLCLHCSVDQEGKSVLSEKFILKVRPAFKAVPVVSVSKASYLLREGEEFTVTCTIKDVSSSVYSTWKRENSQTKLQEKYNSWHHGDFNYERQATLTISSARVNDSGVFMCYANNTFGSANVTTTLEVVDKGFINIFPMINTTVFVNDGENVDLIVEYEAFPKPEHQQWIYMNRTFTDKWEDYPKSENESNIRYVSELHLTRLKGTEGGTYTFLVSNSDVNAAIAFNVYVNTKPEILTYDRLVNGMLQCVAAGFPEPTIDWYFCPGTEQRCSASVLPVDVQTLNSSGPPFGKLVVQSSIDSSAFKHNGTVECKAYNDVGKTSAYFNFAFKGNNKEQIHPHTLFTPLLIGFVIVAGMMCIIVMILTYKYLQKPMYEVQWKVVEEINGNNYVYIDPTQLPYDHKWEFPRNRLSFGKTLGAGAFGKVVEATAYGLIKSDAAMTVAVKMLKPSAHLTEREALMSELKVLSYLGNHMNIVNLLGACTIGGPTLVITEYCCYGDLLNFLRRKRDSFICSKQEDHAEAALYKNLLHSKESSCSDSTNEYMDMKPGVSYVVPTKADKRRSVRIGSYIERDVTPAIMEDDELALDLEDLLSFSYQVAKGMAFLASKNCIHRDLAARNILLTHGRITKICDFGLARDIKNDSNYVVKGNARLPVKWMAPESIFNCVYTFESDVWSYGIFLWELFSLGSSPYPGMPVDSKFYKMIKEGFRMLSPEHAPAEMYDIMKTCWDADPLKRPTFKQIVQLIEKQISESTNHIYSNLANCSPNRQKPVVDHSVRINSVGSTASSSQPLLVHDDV

[6] = biological target: B-Raf (Homo sapiens, UniProt P15056); assay: Kinase activity assay, B-Raf; type: biochemical; settings: read-out: activity toward kinase B-Raf, IC50
Chain of B-Raf (P15056 whole entry): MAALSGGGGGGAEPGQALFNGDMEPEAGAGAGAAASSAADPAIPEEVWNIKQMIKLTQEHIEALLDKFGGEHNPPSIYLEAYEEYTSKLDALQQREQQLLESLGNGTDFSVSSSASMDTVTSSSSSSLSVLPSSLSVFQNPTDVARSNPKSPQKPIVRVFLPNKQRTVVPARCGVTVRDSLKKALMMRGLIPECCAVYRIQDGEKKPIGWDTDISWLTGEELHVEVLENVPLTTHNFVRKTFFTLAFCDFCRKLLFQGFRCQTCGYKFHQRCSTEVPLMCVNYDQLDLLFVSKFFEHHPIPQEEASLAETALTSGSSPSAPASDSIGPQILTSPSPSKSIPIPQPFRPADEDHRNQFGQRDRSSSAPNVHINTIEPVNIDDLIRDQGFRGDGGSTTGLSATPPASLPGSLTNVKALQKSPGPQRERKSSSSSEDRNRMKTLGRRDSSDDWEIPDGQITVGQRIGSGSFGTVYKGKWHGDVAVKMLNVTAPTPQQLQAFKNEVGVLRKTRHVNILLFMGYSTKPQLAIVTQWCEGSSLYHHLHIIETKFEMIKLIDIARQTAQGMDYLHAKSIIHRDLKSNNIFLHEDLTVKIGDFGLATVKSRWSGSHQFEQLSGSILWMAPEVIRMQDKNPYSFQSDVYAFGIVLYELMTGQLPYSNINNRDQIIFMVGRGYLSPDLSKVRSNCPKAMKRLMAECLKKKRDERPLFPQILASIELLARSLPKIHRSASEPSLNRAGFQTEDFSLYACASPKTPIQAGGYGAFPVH

[7] = biological target: Src (Homo sapiens, UniProt P12931); assay: Kinase activity assay, Src
Chain of Src (P12931 whole entry): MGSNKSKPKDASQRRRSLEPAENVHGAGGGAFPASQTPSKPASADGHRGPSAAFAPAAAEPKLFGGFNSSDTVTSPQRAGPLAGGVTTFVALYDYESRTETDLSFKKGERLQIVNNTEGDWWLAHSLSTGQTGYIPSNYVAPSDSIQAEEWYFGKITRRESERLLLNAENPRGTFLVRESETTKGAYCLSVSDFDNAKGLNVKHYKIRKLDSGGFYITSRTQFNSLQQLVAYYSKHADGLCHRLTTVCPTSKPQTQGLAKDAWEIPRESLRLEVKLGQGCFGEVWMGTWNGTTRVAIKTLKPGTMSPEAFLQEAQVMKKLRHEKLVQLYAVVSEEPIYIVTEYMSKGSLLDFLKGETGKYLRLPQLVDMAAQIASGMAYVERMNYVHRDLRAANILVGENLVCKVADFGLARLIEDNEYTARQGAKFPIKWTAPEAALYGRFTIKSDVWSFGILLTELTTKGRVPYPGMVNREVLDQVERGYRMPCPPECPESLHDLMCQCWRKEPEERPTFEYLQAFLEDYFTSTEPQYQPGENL

Chain of Fms (P07333 20-972): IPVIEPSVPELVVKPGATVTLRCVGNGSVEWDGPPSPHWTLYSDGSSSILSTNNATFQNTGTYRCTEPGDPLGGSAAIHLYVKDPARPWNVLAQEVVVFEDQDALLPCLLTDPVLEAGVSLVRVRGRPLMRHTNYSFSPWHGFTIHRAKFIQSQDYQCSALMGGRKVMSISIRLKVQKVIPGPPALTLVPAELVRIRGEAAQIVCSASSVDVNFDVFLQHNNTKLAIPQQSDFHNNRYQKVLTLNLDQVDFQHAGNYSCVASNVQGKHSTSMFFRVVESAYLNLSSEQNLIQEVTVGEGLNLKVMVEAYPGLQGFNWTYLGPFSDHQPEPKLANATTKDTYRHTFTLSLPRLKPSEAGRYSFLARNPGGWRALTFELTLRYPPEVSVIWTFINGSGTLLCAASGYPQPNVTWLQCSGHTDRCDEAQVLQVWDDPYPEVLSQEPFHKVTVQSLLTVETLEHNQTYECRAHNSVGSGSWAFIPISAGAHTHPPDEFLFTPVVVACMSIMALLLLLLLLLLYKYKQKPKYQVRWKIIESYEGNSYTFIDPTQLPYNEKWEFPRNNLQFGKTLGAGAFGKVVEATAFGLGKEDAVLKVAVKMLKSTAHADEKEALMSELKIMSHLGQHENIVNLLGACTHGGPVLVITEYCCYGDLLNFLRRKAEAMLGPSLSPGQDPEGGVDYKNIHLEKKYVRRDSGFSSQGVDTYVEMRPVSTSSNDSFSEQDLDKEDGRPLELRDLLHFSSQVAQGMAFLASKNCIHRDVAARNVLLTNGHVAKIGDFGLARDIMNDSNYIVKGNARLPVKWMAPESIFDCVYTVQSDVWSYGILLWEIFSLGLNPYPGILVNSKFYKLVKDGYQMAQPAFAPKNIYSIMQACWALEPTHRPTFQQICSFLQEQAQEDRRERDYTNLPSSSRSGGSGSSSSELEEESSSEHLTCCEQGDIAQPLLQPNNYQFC
Chain of B-Raf V600E (P15056 whole entry V600E): as the sequence (P15056 whole entry) above, with V600E counted along it

Structure (SMILES) | IC50 [1] | IC50 [2] | IC50 [3] | IC50 [4] | IC50 [5] | IC50 [6] | IC50 [7]
Cc1oncc1S(=O)(=O)Nc1cccc(C(=O)c2c[nH]c3ncc(C#N)cc23)c1F [P-2088, 5-Methyl-isoxazole-4-sulfonic acid [3-(5-cyano-1H-pyrrolo[2,3-b]pyridine-3-carbonyl)-2-fluoro-phenyl]-amide] | ≤ 10 µM | ≤ 10 µM | ≤ 10 µM | ≤ 10 µM | ≤ 10 µM | – | –
O=C(c1cc(NS(=O)(=O)c2ccc(Cl)cc2)ccc1F)c1c[nH]c2ncc(Cl)cc12 [P-2106, 4-Chloro-N-[3-(5-chloro-1H-pyrrolo[2,3-b]pyridine-3-carbonyl)-4-fluoro-phenyl]-benzenesulfonamide] | – | ≤ 10 µM | – | ≤ 10 µM | ≤ 10 µM | ≤ 10 µM | –
O=C(c1cc(NS(=O)(=O)c2cccc(C(F)(F)F)c2)ccc1F)c1c[nH]c2ncc(Cl)cc12 [P-2108, N-[3-(5-Chloro-1H-pyrrolo[2,3-b]pyridine-3-carbonyl)-4-fluoro-phenyl]-3-trifluoromethyl-benzenesulfonamide] | ≤ 10 µM | ≤ 10 µM | – | ≤ 10 µM | ≤ 10 µM | ≤ 10 µM | –
O=C(c1cc(NS(=O)(=O)c2ccc(C(F)(F)F)cc2)ccc1F)c1c[nH]c2ncc(Cl)cc12 [P-2112, N-[3-(5-Chloro-1H-pyrrolo[2,3-b]pyridine-3-carbonyl)-4-fluoro-phenyl]-4-trifluoromethyl-benzenesulfonamide] | – | ≤ 10 µM | – | – | ≤ 10 µM | ≤ 10 µM | –
O=C(c1cccc(NS(=O)(=O)c2ccc(OC(F)(F)F)cc2)c1)c1c[nH]c2ncc(Cl)cc12 [P-2123, N-[3-(5-Chloro-1H-pyrrolo[2,3-b]pyridine-3-carbonyl)-phenyl]-4-trifluoromethoxy-benzenesulfonamide] | – | ≤ 10 µM | – | – | ≤ 10 µM | ≤ 10 µM | –
O=C(c1cccc(NS(=O)(=O)c2cccc(Cl)c2)c1)c1c[nH]c2ncc(Cl)cc12 [P-2125, 3-Chloro-N-[3-(5-chloro-1H-pyrrolo[2,3-b]pyridine-3-carbonyl)-phenyl]-benzenesulfonamide] | – | ≤ 10 µM | – | ≤ 10 µM | ≤ 10 µM | – | –
O=C(c1cccc(NS(=O)(=O)c2ccc(Cl)cc2)c1)c1c[nH]c2ncc(Cl)cc12 [P-2128, 4-Chloro-N-[3-(5-chloro-1H-pyrrolo[2,3-b]pyridine-3-carbonyl)-phenyl]-benzenesulfonamide] | – | ≤ 10 µM | – | ≤ 10 µM | ≤ 10 µM | ≤ 10 µM | –
CCCS(=O)(=O)Nc1ccc(F)c(C(=O)c2c[nH]c3ncc(-c4cccnc4F)cc23)c1F [P-2164, Propane-1-sulfonic acid {2,4-difluoro-3-[5-(2-fluoro-pyridin-3-yl)-1H-pyrrolo[2,3-b]pyridine-3-carbonyl]-phenyl}-amide] | ≤ 10 µM | ≤ 10 µM | – | ≤ 10 µM | ≤ 10 µM | – | ≤ 10 µM
CCCS(=O)(=O)Nc1ccc(F)c(C(=O)c2c[nH]c3ncc(-c4ccc(S(C)(=O)=O)cc4)cc23)c1F [P-2183, Propane-1-sulfonic acid {2,4-difluoro-3-[5-(4-methanesulfonyl-phenyl)-1H-pyrrolo[2,3-b]pyridine-3-carbonyl]-phenyl}-amide] | ≤ 10 µM | ≤ 10 µM | – | ≤ 10 µM | ≤ 10 µM | ≤ 10 µM | –
CCCS(=O)(=O)Nc1ccc(F)c(C(=O)c2c[nH]c3ncc(C#CCN(CC)CC)cc23)c1F [P-2241, Propane-1-sulfonic acid {3-[5-(3-diethylamino-prop-1-ynyl)-1H-pyrrolo[2,3-b]pyridine-3-carbonyl]-2,4-difluoro-phenyl}-amide] | – | ≤ 10 µM | – | ≤ 10 µM | ≤ 10 µM | – | –
CC(C)CS(=O)(=O)Nc1ccc(F)c(C(=O)c2c[nH]c3ncc(Br)cc23)c1F [P-2296, 2-Methyl-propane-1-sulfonic acid [3-(5-bromo-1H-pyrrolo[2,3-b]pyridine-3-carbonyl)-2,4-difluoro-phenyl]-amide] | ≤ 10 µM | ≤ 10 µM | – | ≤ 10 µM | ≤ 10 µM | – | ≤ 10 µM
O=C(c1c(F)ccc(NS(=O)(=O)C2CC2)c1F)c1c[nH]c2ncc(Br)cc12 [P-2348, Cyclopropanesulfonic acid [3-(5-bromo-1H-pyrrolo[2,3-b]pyridine-3-carbonyl)-2,4-difluoro-phenyl]-amide] | ≤ 10 µM | ≤ 10 µM | – | ≤ 10 µM | ≤ 10 µM | – | –
CCCCS(=O)(=O)Nc1ccc(F)c(C(=O)c2c[nH]c3ncc(Cl)cc23)c1 [P-2435, Butane-1-sulfonic acid [3-(5-chloro-1H-pyrrolo[2,3-b]pyridine-3-carbonyl)-4-fluoro-phenyl]-amide] | ≤ 10 µM | ≤ 10 µM | – | ≤ 10 µM | ≤ 10 µM | – | –
CCCCS(=O)(=O)Nc1cccc(C(=O)c2c[nH]c3ncc(Cl)cc23)c1 [P-2450, Butane-1-sulfonic acid [3-(5-chloro-1H-pyrrolo[2,3-b]pyridine-3-carbonyl)-phenyl]-amide] | ≤ 10 µM | ≤ 10 µM | – | ≤ 10 µM | ≤ 10 µM | – | –
O=C(c1cccc(NS(=O)(=O)C2CC2)c1)c1c[nH]c2ncc(Cl)cc12 [P-2451, Cyclopropanesulfonic acid [3-(5-chloro-1H-pyrrolo[2,3-b]pyridine-3-carbonyl)-phenyl]-amide] | – | ≤ 10 µM | – | ≤ 10 µM | ≤ 10 µM | – | –

Continued, values first:

IC50 [1] | IC50 [2] | IC50 [3] | IC50 [4] | IC50 [5] | IC50 [6] | IC50 [7] | Structure (SMILES)
≤ 10 µM | ≤ 10 µM | – | ≤ 10 µM | ≤ 10 µM | ≤ 10 µM | ≤ 10 µM | Cn1cc(-c2cnc3[nH]cc(C(=O)c4cc(NS(=O)(=O)c5ccc(C(F)(F)F)cc5)ccc4F)c3c2)cn1 [P-2104, N-{4-Fluoro-3-[5-(1-methyl-1H-pyrazol-4-yl)-1H-pyrrolo[2,3-b]pyridine-3-carbonyl]-phenyl}-4-trifluoromethyl-benzenesulfonamide]
≤ 10 µM | ≤ 10 µM | – | ≤ 10 µM | ≤ 10 µM | ≤ 10 µM | – | O=C(c1cc(NS(=O)(=O)c2cccc(OC(F)(F)F)c2)ccc1F)c1c[nH]c2ncc(Cl)cc12 [P-2110, N-[3-(5-Chloro-1H-pyrrolo[2,3-b]pyridine-3-carbonyl)-4-fluoro-phenyl]-3-trifluoromethoxy-benzenesulfonamide]
– | ≤ 10 µM | – | ≤ 10 µM | ≤ 10 µM | – | – | O=C(c1cccc(NS(=O)(=O)c2cccc(OC(F)(F)F)c2)c1)c1c[nH]c2ncc(Cl)cc12 [P-2124, N-[3-(5-Chloro-1H-pyrrolo[2,3-b]pyridine-3-carbonyl)-phenyl]-3-trifluoromethoxy-benzenesulfonamide]
≤ 10 µM | ≤ 10 µM | – | ≤ 10 µM | ≤ 10 µM | ≤ 10 µM | – | O=C(c1cccc(NS(=O)(=O)c2cccc(F)c2)c1)c1c[nH]c2ncc(Cl)cc12 [P-2127, N-[3-(5-Chloro-1H-pyrrolo[2,3-b]pyridine-3-carbonyl)-phenyl]-3-fluoro-benzenesulfonamide]
≤ 10 µM | ≤ 10 µM | – | ≤ 10 µM | ≤ 10 µM | ≤ 10 µM | – | CCCS(=O)(=O)Nc1ccc(F)c(C(=O)c2c[nH]c3ncc(-c4ncc(C)n4C)cc23)c1F [P-2152, Propane-1-sulfonic acid {3-[5-(1,5-dimethyl-1H-imidazol-2-yl)-1H-pyrrolo[2,3-b]pyridine-3-carbonyl]-2,4-difluoro-phenyl}-amide]
≤ 10 µM | ≤ 10 µM | – | ≤ 10 µM | ≤ 10 µM | ≤ 10 µM | ≤ 10 µM | CCCS(=O)(=O)Nc1ccc(F)c(C(=O)c2c[nH]c3ncc(-c4nccn4C)cc23)c1F [P-2153, Propane-1-sulfonic acid {2,4-difluoro-3-[5-(1-methyl-1H-imidazol-2-yl)-1H-pyrrolo[2,3-b]pyridine-3-carbonyl]-phenyl}-amide]
≤ 10 µM | ≤ 10 µM | – | ≤ 10 µM | ≤ 10 µM | – | ≤ 10 µM | CCCS(=O)(=O)Nc1ccc(F)c(C(=O)c2c[nH]c3ncc(-c4cccc(NS(C)(=O)=O)c4)cc23)c1F [P-2169, Propane-1-sulfonic acid {2,4-difluoro-3-[5-(3-methanesulfonylamino-phenyl)-1H-pyrrolo[2,3-b]pyridine-3-carbonyl]-phenyl}-amide]
≤ 10 µM | ≤ 10 µM | – | ≤ 10 µM | ≤ 10 µM | ≤ 10 µM | – | CCCS(=O)(=O)Nc1cccc(C(=O)c2c[nH]c3ncc(C(=O)OCC)cc23)c1F [P-2406, 3-[2-Fluoro-3-(propane-1-sulfonylamino)-benzoyl]-1H-pyrrolo[2,3-b]pyridine-5-carboxylic acid ethyl ester]
≤ 10 µM | ≤ 10 µM | – | ≤ 10 µM | ≤ 10 µM | – | – | O=C(c1cc(NS(=O)(=O)C2CC2)ccc1F)c1c[nH]c2ncc(Cl)cc12 [P-2436, Cyclopropanesulfonic acid [3-(5-chloro-1H-pyrrolo[2,3-b]pyridine-3-carbonyl)-4-fluoro-phenyl]-amide]
– | ≤ 10 µM | – | ≤ 10 µM | ≤ 10 µM | – | – | CCCCS(=O)(=O)Nc1ccc(F)c(C(=O)c2c[nH]c3ncccc23)c1 [P-2438, Butane-1-sulfonic acid [4-fluoro-3-(1H-pyrrolo[2,3-b]pyridine-3-carbonyl)-phenyl]-amide]
